Measurements published in patent US20110040088A1, “FUSED HETEROCYCLIC COMPOUNDS” (priority 2003, published 2011).
Where two headings read alike, the source gives them in different places.

Key:
[1] = target: T1, rat 5-HT7a receptor (Rattus norvegicus, UniProt P32305); assay: 5-HT7 receptor radioligand binding ([3H]5-CT, membranes of transfected HEK-293 cells); details: rat 5-HT7a in HEK-293 membranes, 1 nM [3H]5-CT
T1 construct: expressed in transfected cells

[2] = target: 5-HT2A receptor (UniProt P28223); assay: 5-HT2A receptor radioligand binding ([3H]ketanserin); details: read-out: Ki 5-HT2A, table does not say whether rat cortex or human recombinant (NIH3T3) receptor;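 further: competitive displacement binding on membranes, either from rat cerebral cortex or from NIH3T3 cells stably expressing human 5-HT2A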
Description: The affinity of the compounds for the rat 5-HT2A receptor was evaluated by competitive radioligand binding assay using [^3H]ketanserine as the radioligand. The assay was performed on membranes from rat cortex as previously described (Schotte, A. et al., Psychopharmacology (1996) 124: 57-73). Briefly, brain tissue (rat cortex) was homogenized in 20 volumes per wet weight tissue of Tris-HCl buffer (50 mM, pH 7.4). The total membrane fraction was collected by centrifugation and washed by subsequent centrifugation runs (25 min at 25,000 g at 4° C.). Membranes were re-suspended in Tris-HCl buffer (50 mM, pH 7.4) containing 1 nM [^3H]ketanserin. Non-specific binding was estimated in the presence of 10 μM risperidone.

[3] = target: human recombinant 5-HT2B receptor (Homo sapiens, UniProt P41595); assay: 5-HT2B receptor radioligand binding ([3H]mesulergine, CHO membranes);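 further: competitive displacement binding on membranes of CHO cells stably expressing the receptor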
Sequence of human recombinant 5-HT2B receptor (P41595 whole entry): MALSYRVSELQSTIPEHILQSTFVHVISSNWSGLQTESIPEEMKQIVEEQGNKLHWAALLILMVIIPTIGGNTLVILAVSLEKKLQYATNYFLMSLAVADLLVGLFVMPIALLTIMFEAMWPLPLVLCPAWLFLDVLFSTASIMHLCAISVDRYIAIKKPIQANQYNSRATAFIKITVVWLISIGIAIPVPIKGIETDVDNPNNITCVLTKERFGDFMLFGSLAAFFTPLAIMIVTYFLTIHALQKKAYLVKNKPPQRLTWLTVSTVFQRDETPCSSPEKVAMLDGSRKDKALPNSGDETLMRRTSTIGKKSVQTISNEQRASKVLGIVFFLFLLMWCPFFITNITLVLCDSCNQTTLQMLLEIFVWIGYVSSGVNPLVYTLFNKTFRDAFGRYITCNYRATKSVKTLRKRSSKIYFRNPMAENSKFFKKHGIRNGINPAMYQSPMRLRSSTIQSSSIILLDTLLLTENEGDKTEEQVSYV
Description: (§1) Affinity for 5HT2 Receptor Binding Sites
(§2) Receptor binding was performed using the human recombinant 5-HT2A (GB: X57830), 5-HT2B (GB: Z36748) and 5-HT2c (GB: M81778) receptors. The affinity of the compounds for the 3 different human 5-HT2 receptor subtypes was evaluated by competitive radioligand binding assays using [^3H]ketanserin (h5-HT2A) or [^3H]mesulergine (h5-HT2B and h5-HT2c). The assays were performed on membranes prepared from NIH3T3 stably transfected with h5-HT2A or CHO stably transfected with h5-HT2B and h5-HT2C.

[4] = target: T2, human recombinant 5-HT2C receptor (Homo sapiens, UniProt P28335); assay: 5-HT2C receptor radioligand binding ([3H]mesulergine, CHO membranes);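 further: competitive displacement of the tritiated ligand, using membranes from CHO cells stably transfected with the human receptor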
T2 sequence (P28335 33-458): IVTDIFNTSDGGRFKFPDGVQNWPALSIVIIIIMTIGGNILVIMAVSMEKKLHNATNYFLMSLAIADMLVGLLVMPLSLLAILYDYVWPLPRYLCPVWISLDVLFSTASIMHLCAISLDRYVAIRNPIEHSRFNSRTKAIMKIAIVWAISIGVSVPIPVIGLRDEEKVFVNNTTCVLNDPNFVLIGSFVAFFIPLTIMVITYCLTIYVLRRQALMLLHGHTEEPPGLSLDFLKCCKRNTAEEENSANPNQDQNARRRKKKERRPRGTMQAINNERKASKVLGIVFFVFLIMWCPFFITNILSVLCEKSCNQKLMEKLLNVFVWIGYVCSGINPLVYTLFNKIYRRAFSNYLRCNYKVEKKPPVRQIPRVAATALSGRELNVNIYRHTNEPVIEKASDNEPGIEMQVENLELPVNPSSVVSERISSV
Description: as §1, §2

[5] = target: T1, rat 5-HT7a receptor; assay: Adenylyl cyclase assay (5-CT-stimulated cAMP) in r5-HT7a/HEK-293 cells; format: cell-based
Description: 2. Effect on Adenylyl Cyclase Activity
In vitro functional properties of the compounds described in this invention were evaluated in an adenylyl cyclase assay. HEK-293 cells stably tranfected with the rat 5-HT7a receptor were plated into 96-well plates. Cells were washed with 200 μL DNEM/F12 and incubated for 10 min with 80 μL of 2 mM 3-isobutyl-1-methylxanthine. Compounds (10 μL) were added for another 10 min. Subsequently, 5-CT (10 μL) was added. After 20 min the incubation was stopped by the addition of 20 μL of 0.5 N HCl. Plates were incubated at 4° C. for 30 min. Twenty μL of the supernatant were assayed for cAMP content with a commercially available kit (Perkin Elmer) using ^125I-cAMP. Sigmoidal curves of best fit were calculated by nonlinear regression analysis using GrapPad Prism.
5-CT-stimulated adenylyl cyclase activity in r5-HT7a/HEK-293 cells was inhibited by Example 59 with an estimated pKB˜8 in good agreement with the Ki value determined from [^3H]5-CT binding studies.

[6] = read-out: Ki 5-HT2C, h5-HT2C in CHO membranes, [3H]mesulergine

T1 sequence (P32305 whole entry): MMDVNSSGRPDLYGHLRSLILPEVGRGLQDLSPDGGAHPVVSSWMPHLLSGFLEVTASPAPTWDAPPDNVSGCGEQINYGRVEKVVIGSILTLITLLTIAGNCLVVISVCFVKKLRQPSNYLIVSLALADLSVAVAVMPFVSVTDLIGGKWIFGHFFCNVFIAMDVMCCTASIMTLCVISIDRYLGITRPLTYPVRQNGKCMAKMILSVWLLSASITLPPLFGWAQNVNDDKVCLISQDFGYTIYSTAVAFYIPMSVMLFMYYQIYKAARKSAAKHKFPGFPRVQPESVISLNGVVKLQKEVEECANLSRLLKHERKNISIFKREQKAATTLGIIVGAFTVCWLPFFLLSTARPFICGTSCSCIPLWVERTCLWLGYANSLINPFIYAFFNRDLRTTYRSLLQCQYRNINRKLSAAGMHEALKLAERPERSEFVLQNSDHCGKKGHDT

Row | Ki [1] [nM] | Ki [2] [nM] | Ki [3] [nM] | Kb ([5]; r5-HT7a/HEK-293 cells, estimated) [nM] | Kb ([5]; printed in the Ki 5-HT7 column of Table 1, read-out: pKb 5-HT7 (converted)) [nM] | Ki [4, 6] [nM] | Compound | Ki [4] [nM]
1 | 6 | 280 | 160 | ~10 |  |  | Clc1ccc(-c2nn(Cc3ccccc3)c3c2CCNCC3)cc1 [Example 59, 1-Benzyl-3-(4-chloro-phenyl)-1,4,5,6,7,8-hexahydro-1,2,6-triaza-azulene] | 74
2 |  |  |  |  | 15.8 |  | CN1CCc2c(c(-c3ccc(Cl)cc3)cn2Cc2ccccc2)C1 [Example 38, 1-Benzyl-3-(4-chloro-phenyl)-5-methyl-4,5,6,7-tetrahydro-1H-pyrrolo[3,2-c]pyridine] | 
3 | 950 | 7 | 4.5 |  |  |  | Fc1ccc(-c2c3c(nn2C2CCCC2)CCNCC3)cc1F [Example 236, 2-Cyclopentyl-3-(3,4-difluoro-phenyl)-2,4,5,6,7,8-hexahydro-1,2,6-triaza-azulene] | 32
4 | 80 | 0.8 | 1 |  |  |  | FC(F)(F)c1ccc(-c2c3c(nn2C2CCC2)CCNCC3)cc1 [Example 279, 2-Cyclobutyl-3-(4-trifluoromethyl-phenyl)-2,4,5,6,7,8-hexahydro-1,2,6-triaza-azulene] | 45
5 | 90 | 0.74 | 1.4 |  |  |  | Fc1ccc(-c2c3c(nn2C2CCCC2)CCNCC3)cc1 [Example 182, 2-Cyclopentyl-3-(4-fluoro-phenyl)-2,4,5,6,7,8-hexahydro-1,2,6-triaza-azulene] | 18
6 | 55 | 1.3 | 0.55 |  |  |  | COc1ccc(-c2c3c(nn2C2CCCC2)CCNCC3)cc1 [Example 220, 2-Cyclopentyl-3-(4-methoxy-phenyl)-2,4,5,6,7,8-hexahydro-1,2,6-triaza-azulene] | 6.8
7 | 37 | 1.5 | 1.8 |  |  |  | Clc1ccc(-c2c3c(nn2C2CCCC2)CCNCC3)cc1 [Example 181, 3-(4-Chloro-phenyl)-2-cyclopentyl-2,4,5,6,7,8-hexahydro-1,2,6-triaza-azulene] | 11
8 | 8.5 | 5 | 0.5 |  |  | 18 | CC(C)n1nc2c(c1-c1ccc(Cl)cc1)CCNCC2 [Example 211, 3-(4-Chloro-phenyl)-2-isopropyl-2,4,5,6,7,8-hexahydro-1,2,6-triaza-azulene] | 
9 | 120 | 1 | 22 |  |  |  | CC1CNCCc2c1nn(C(C)C)c2-c1ccc(F)cc1 (centres unmarked) [Example 306, 3-(4-Fluoro-phenyl)-2-isopropyl-8-methyl-2,4,5,6,7,8-hexahydro-1,2,6-triaza-azulene] | 39
10 | 120 | 7 | 4.2 |  |  |  | CC(C)Cn1nc2c(c1-c1ccc(Cl)cc1)CCNCC2 [Example 131, 3-(4-Chloro-phenyl)-2-isobutyl-2,4,5,6,7,8-hexahydro-1,2,6-triaza-azulene] | 50
11 | 70 | 6 | 20 |  |  |  | CC(C)(C)n1nc2c(c1-c1ccc(F)cc1)CCNCC2 [Example 216, 2-tert-Butyl-3-(4-fluoro-phenyl)-2,4,5,6,7,8-hexahydro-1,2,6-triaza-azulene] | 17
12 | 12 | 7.5 | 4.7 |  |  | 80 | CC(C)n1nc2c(c1-c1ccc(C(F)(F)F)cc1)CCNCC2 [Example 213, 2-Isopropyl-3-(4-trifluoromethyl-phenyl)-2,4,5,6,7,8-hexahydro-1,2,6-triaza-azulene] | 

Row | Compound | Ki [1] [nM] | Ki [2] [nM] | Ki [3] [nM] | Kb ([5]; r5-HT7a/HEK-293 cells, estimated) [nM] | Kb ([5]; printed in the Ki 5-HT7 column of Table 1, read-out: pKb 5-HT7 (converted)) [nM] | Ki [4, 6] [nM] | Ki [4] [nM]
13 | c1ccc(-c2c3c(nn2C2CCCCC2)CCNCC3)cc1 [Example 177, 2-Cyclohexyl-3-phenyl-2,4,5,6,7,8-hexahydro-1,2,6-triaza-azulene] | 80 | 7 | 7 |  |  |  | 110
14 | N#Cc1ccc(-c2c3c(nn2C2CC2)CCNCC3)cc1 [Example 286, 4-(2-Cyclopropyl-2,4,5,6,7,8-hexahydro-1,2,6-triaza-azulen-3-yl)-benzonitrile] | 335 | 50 | 80 |  |  |  | 5000
15 | N#Cc1ccc(-c2c3c(nn2C2CCC2)CCNCC3)cc1 [Example 280, 4-(2-Cyclobutyl-2,4,5,6,7,8-hexahydro-1,2,6-triaza-azulen-3-yl)-benzonitrile] | 3300 | 1.5 | 6 |  |  |  | 120
16 | CC1Cc2nn(C(C)C)c(-c3ccccc3)c2CCN1 (centres unmarked) [Example 311, 2-Isopropyl-7-methyl-3-phenyl-2,4,5,6,7,8-hexahydro-1,2,6-triaza-azulene] | 80 | 140 | 100 |  |  |  | 3000
17 | Oc1ccc(Cn2nc(-c3ccc(Cl)cc3)c3c2CCNCC3)cc1F [Example 160, 4-[3-(4-Chloro-phenyl)-5,6,7,8-tetrahydro-4H-1,2,6-triaza-azulen-1-ylmethyl]-2-fluoro-phenol] | 7 | 300 | 350 |  |  |  | 3500
18 | Fc1ccc(Cn2nc(-c3ccc(Cl)cc3)c3c2CCNCC3)cc1 [Example 75, 3-(4-Chloro-phenyl)-1-(4-fluoro-benzyl)-1,4,5,6,7,8-hexahydro-1,2,6-triaza-azulene] | 7 | 200 | 100 |  |  |  | 320
19 | CCN1CCc2c(-c3ccc(Cl)cc3)nn(Cc3ccccc3)c2CC1 [Example 166, 1-Benzyl-3-(4-chloro-phenyl)-6-ethyl-1,4,5,6,7,8-hexahydro-1,2,6-triaza-azulene] | 8 | 80 | 560 |  |  |  | 590
20 | CC1Cc2nn(C3CCCC3)c(-c3ccc(F)cc3)c2CCN1 (centres unmarked) [Example 308, 2-Cyclopentyl-3-(4-fluoro-phenyl)-7-methyl-2,4,5,6,7,8-hexahydro-1,2,6-triaza-azulene] | 5200 | 2 | 3 |  |  |  | 162
21 | CCC(CC)n1nc2c(c1-c1ccc(F)c(C)c1)CCNCC2 [Example 283, 2-(1-Ethyl-propyl)-3-(4-fluoro-3-methyl-phenyl)-2,4,5,6,7,8-hexahydro-1,2,6-triaza-azulene] | 5000 | 10 | 60 |  |  |  | 150
22 | CC1Cc2nn(C(C)C)c(-c3ccc(F)cc3)c2CCN1 (centres unmarked) [Example 313, 3-(4-Fluoro-phenyl)-2-isopropyl-7-methyl-2,4,5,6,7,8-hexahydro-1,2,6-triaza-azulene] | 30 | 100 | 40 |  |  |  | 1000
